Assay results: US20060069132A1, “Azolecarboxamide herbicides” (priority 2004, published 2006)

Key:
Experiment in all cases: Test E pre-/postemergence herbicide test
[1] = test system: southern sandbur; assay type: in vivo, Cenchrus echinatus
Description: (§1) Seeds of plant species selected from bipinnate beggarticks (Bidens bipinnata L.), hairy beggarticks (Bidens radiata Thuill.), bermudagrass (Cynodon dactylon (L.) Pers.), Surinam grass (Urochloa decumbens (Staph) R. D. Webster, previously named Brachiaria decumbens Stapf), large crabgrass (Digitaria sanguinalis (L.) Scop.), green foxtail (Setaria viridis (L.) P. Beauv.), goosegrass (Eleusine indica (L.) Gaertn.), johnsongrass (Sorghum halepense (L.) Pers.), kochia (Kochia scoparia (L.) Schrad.), pitted morningglory (Ipomoea lacunosa L.), purple nutsedge (Cyperus rotundus L.), common ragweed (Ambrosia elatior L.), mustard (Brassica nigra (L.) W. D. J. Koch), guineagrass (Panicum maximum Jacq.), dallisgrass (Paspalum dilatatum Poir.), barnyardgrass (Echinochloa crus-galli (L). P. Beauv.), southern sandbur (Cenchrus echinatus L.), common sowthistle (Sonchus oleraceous L.), prickly sida (Sida spinosa L.), Italian ryegrass (Lolium multiflorum Lam.), common purslane (Portulaca oleracea L.), broadleaf signalgrass (Brachiaria platyphylla (Griseb.) Nash), common groundsel (Senecio vulgaris L.), common chickweed (Stellaria media (L.) Vill/Cyr.), tropical spiderwort (Commelina benghalensis L.), annual bluegrass (Poa annua L.), downy bromegrass (Bromus tectorum L.), itchgrass (Rottboellia cochinchinensis (L.) L.f.), quackgrass (Elytrigia repens (L.) Nevski), Canada horseweed (Erigeron Canadensis L.), field bindweed (Convolvulus arvensis L.), spotted spurge (Euphorbia maculata L.), common mallow (Malva sylvestris (=s silvestris) L.), and Russian thistle (Salsola kali L. ssp. Ruthenica (Iljin) Soo) were planted and treated preemergence with test chemicals formulated in a non-phytotoxic solvent mixture which included a surfactant.
(§2) At the same time, plants selected from these weed species were treated with postemergence applications of some of the test chemicals formulated in the same manner. Plants ranged in height from 2 to 18 cm (1- to 4-leaf stage) for postemergence treatments. Treated plants and controls were maintained in a greenhouse for 12 to 14 days, after which time all species were compared to controls and visually evaluated. Plant response ratings, summarized in Table E, are based on a scale of 0 to 100 where 0 is no effect and 100 is complete control. A dash (-) response means no test result.

[2] = test system: field bindweed; assay type: in vivo, Convolvulus arvensis
Description: as §1, §2

[3] = test system: guineagrass; assay type: in vivo, Panicum maximum
Description: as §1, §2

[4] = test system: Italian ryegrass; assay type: in vivo, Lolium multiflorum
Description: as §1, §2

[5] = test system: common mallow; assay type: in vivo, Malva sylvestris
Description: as §1, §2

[6] = test system: pitted morningglory; assay type: in vivo, Ipomoea lacunosa
Description: as §1, §2

[7] = test system: common chickweed; assay type: in vivo, Stellaria media
Description: as §1, §2

[8] = test system: Canada horseweed; assay type: in vivo, Erigeron Canadensis
Description: as §1, §2

[9] = Preemergence, 62 g ai/ha, scale 0 to 100
[10] = Preemergence, 125 g ai/ha, scale 0 to 100
[11] = Preemergence, 250 g ai/ha, scale 0 (no effect) to 100 (complete control)
[12] = Preemergence, 500 g ai/ha, scale 0 (no effect) to 100 (complete control)
[13] = Postemergence, 500 g ai/ha, scale 0 to 100
[14] = Postemergence, 250 g ai/ha, scale 0 to 100
[15] = Preemergence, 125 g ai/ha, scale 0 (no effect) to 100 (complete control)
[16] = postemergence, 125 g ai/ha, scale 0 to 100
[17] = postemergence, 62 g ai/ha, scale 0 to 100

SMILES: CCc1nn(C(C)(C)CC)nc1C(=O)Nc1cccc(C(=O)N(C)C)c1 [Compound 372]
- Plant response rating, Sandbur [1, 9]: 20
- Plant response rating, Sandbur [1, 10]: 30
- Plant response rating, Sandbur [1, 11]: 60
- Plant response rating, Sandbur [1, 12]: 70
- Plant response rating, Bindweed, Field [2, 9]: 10
- Plant response rating, Bindweed, Field [2, 10]: 10
- Plant response rating, Bindweed, Field [2, 11]: 50
- Plant response rating, Bindweed, Field [2, 12]: 60
- Plant response rating, Guineagrass [3, 9]: 40
- Plant response rating, Guineagrass [3, 10]: 80
- Plant response rating, Guineagrass [3, 11]: 80
- Plant response rating, Guineagrass [3, 12]: 95
- Plant response rating, Ryegrass, Italian [4, 9]: 60
- Plant response rating, Ryegrass, Italian [4, 10]: 70
- Plant response rating, Ryegrass, Italian [4, 11]: 95
- Plant response rating, Ryegrass, Italian [4, 12]: 95
- Plant response rating, Mallow [5, 9]: 50
- Plant response rating, Mallow [5, 10]: 50
- Plant response rating, Mallow [5, 11]: 80
- Plant response rating, Mallow [5, 12]: 90
- Plant response rating, Morningglory [6, 9]: 10
- Plant response rating, Morningglory [6, 10]: 20
- Plant response rating, Morningglory [6, 11]: 50
- Plant response rating, Morningglory [6, 12]: 60
- Plant response rating, Chickweed [7, 9]: 60
- Plant response rating, Chickweed [7, 10]: 90
- Plant response rating, Chickweed [7, 11]: 95
- Plant response rating, Chickweed [7, 12]: 95
- Plant response rating, Horseweed [8, 9]: 80
- Plant response rating, Horseweed [8, 10]: 80
- Plant response rating, Horseweed [8, 11]: 95
- Plant response rating, Horseweed [8, 12]: 100

SMILES: Cc1nn(C(C)(C)C)nc1C(=O)Nc1cccc(C(=O)N(C)C)c1 [Compound 391]
- Plant response rating, Sandbur [1, 9]: 10
- Plant response rating, Sandbur [1, 10]: 70
- Plant response rating, Sandbur [1, 11]: 80
- Plant response rating, Sandbur [1, 12]: 80
- Plant response rating, Bindweed, Field [2, 9]: 20
- Plant response rating, Bindweed, Field [2, 10]: 90
- Plant response rating, Bindweed, Field [2, 11]: 90
- Plant response rating, Bindweed, Field [2, 12]: 95
- Plant response rating, Guineagrass [3, 9]: 60
- Plant response rating, Guineagrass [3, 10]: 80
- Plant response rating, Guineagrass [3, 11]: 100
- Plant response rating, Guineagrass [3, 12]: 100
- Plant response rating, Ryegrass, Italian [4, 10]: 80
- Plant response rating, Ryegrass, Italian [4, 11]: 95
- Plant response rating, Ryegrass, Italian [4, 12]: 95
- Plant response rating, Mallow [5, 9]: 80
- Plant response rating, Mallow [5, 10]: 80
- Plant response rating, Mallow [5, 11]: 100
- Plant response rating, Mallow [5, 12]: 100
- Plant response rating, Morningglory [6, 9]: 10
- Plant response rating, Morningglory [6, 10]: 60
- Plant response rating, Morningglory [6, 11]: 80
- Plant response rating, Morningglory [6, 12]: 80
- Plant response rating, Chickweed [7, 9]: 90
- Plant response rating, Chickweed [7, 10]: 90
- Plant response rating, Chickweed [7, 11]: 100
- Plant response rating, Chickweed [7, 12]: 100
- Plant response rating, Horseweed [8, 9]: 80
- Plant response rating, Horseweed [8, 10]: 95
- Plant response rating, Horseweed [8, 11]: 100
- Plant response rating, Horseweed [8, 12]: 100

SMILES: CCn1nc(C(C)(C)C)cc1C(=O)Nc1cc(C(=O)N(C)C)ccc1F [Compound 6, N-[5-[(dimethylamino)carbonyl]-2-fluorophenyl]-3-(1,1-dimethylethyl)-1-ethyl-1H-pyrazole-5-carboxamide]
- Plant response rating, Sandbur [1, 13]: 100
- Plant response rating, Sandbur [1, 14]: 100
- Plant response rating, Sandbur [1, 9]: 85
- Plant response rating, Sandbur [1, 15]: 100
- Plant response rating, Sandbur [1, 12]: 100
- Plant response rating, Sandbur [1, 16]: 95
- Plant response rating, Sandbur [1, 17]: 85
- Plant response rating, Bindweed, Field [2, 13]: 100
- Plant response rating, Bindweed, Field [2, 14]: 100
- Plant response rating, Bindweed, Field [2, 9]: 30
- Plant response rating, Bindweed, Field [2, 15]: 60
- Plant response rating, Bindweed, Field [2, 12]: 100
- Plant response rating, Bindweed, Field [2, 16]: 95
- Plant response rating, Bindweed, Field [2, 17]: 10
- Plant response rating, Guineagrass [3, 13]: 98
- Plant response rating, Guineagrass [3, 14]: 95
- Plant response rating, Guineagrass [3, 9]: 95
- Plant response rating, Guineagrass [3, 15]: 95
- Plant response rating, Guineagrass [3, 11]: 95
- Plant response rating, Guineagrass [3, 12]: 100
- Plant response rating, Guineagrass [3, 16]: 90
- Plant response rating, Guineagrass [3, 17]: 80
- Plant response rating, Ryegrass, Italian [4, 13]: 98
- Plant response rating, Ryegrass, Italian [4, 14]: 98
- Plant response rating, Ryegrass, Italian [4, 9]: 90
- Plant response rating, Ryegrass, Italian [4, 15]: 95
- Plant response rating, Ryegrass, Italian [4, 12]: 100
- Plant response rating, Ryegrass, Italian [4, 16]: 95
- Plant response rating, Ryegrass, Italian [4, 17]: 80
- Plant response rating, Mallow [5, 13]: 100
- Plant response rating, Mallow [5, 14]: 100
- Plant response rating, Mallow [5, 9]: 70
- Plant response rating, Mallow [5, 15]: 100
- Plant response rating, Mallow [5, 12]: 100
- Plant response rating, Mallow [5, 16]: 95
- Plant response rating, Mallow [5, 17]: 65
- Plant response rating, Morningglory [6, 13]: 80
- Plant response rating, Morningglory [6, 14]: 60
- Plant response rating, Morningglory [6, 9]: 20
- Plant response rating, Morningglory [6, 15]: 70
- Plant response rating, Morningglory [6, 12]: 100
- Plant response rating, Morningglory [6, 16]: 10
- Plant response rating, Morningglory [6, 17]: 0
- Plant response rating, Chickweed [7, 13]: 100
- Plant response rating, Chickweed [7, 14]: 100
- Plant response rating, Chickweed [7, 9]: 90
- Plant response rating, Chickweed [7, 15]: 95
- Plant response rating, Chickweed [7, 11]: 95
- Plant response rating, Chickweed [7, 12]: 100
- Plant response rating, Chickweed [7, 16]: 100
- Plant response rating, Chickweed [7, 17]: 100
- Plant response rating, Horseweed [8, 13]: 100
- Plant response rating, Horseweed [8, 14]: 100
- Plant response rating, Horseweed [8, 9]: 100
- Plant response rating, Horseweed [8, 15]: 100
- Plant response rating, Horseweed [8, 11]: 100
- Plant response rating, Horseweed [8, 12]: 100
- Plant response rating, Horseweed [8, 16]: 100
- Plant response rating, Horseweed [8, 17]: 75
